Data published in US7449292B2, “Methods for predicting relative efficacy of a beta blocker therapy based on a B1-adrenergic receptor polymorphism” (University of Cincinnati, priority 2003, dated 2008).

Test system: cardiac β1-AR (position 389 genotype)
Format: in vivo, human
Conditions: Gly389/Arg389 heterozygous heart failure patients; difference before vs after >6 months on a stable dose
Description: The study was approved by the University of Cincinnati Institutional Review Board and the patients gave informed consent. […] LVEF was determined by radionuclide ventriculography before initiation of drug treatment and after a maintenance period of >6 months on a stable dose. The change in LVEF was reported as the difference between values before and after drug treatment.

SMILES: COc1ccccc1OCCNCC(O)COc1cccc2[nH]c3ccccc3c12 (stereo not shown) [carvedilol]
- improvement in LVEF: improvement similar to that of Arg389-homozygous patients
